The values that follow are results of earlier work, collected in patent US20200179539A1, “Contrast Agents and Methods of Making the Same for Spectral CT That Exhibit Cloaking and Auto-Segmentation” (BOARD OF REGENTS, THE UNIVERSITY OF TEXAS SYSTEM, priority 2017, published 2020).

In the series the test system is rat. To be noted: rat oral.

For the compound `[Na+].[Na+].[O]=[W](=[O])([O-])[O-]` [sodium tungstate], the LD50 is 1,190 mg/Kg.
